Measured values from ChEMBL document CHEMBL1154575, “Bioactive 12-oleanene triterpene and secotriterpene acids from Maytenus undata” (J Nat Prod, 2000).
In brackets after ≈: the same amount, converted by molar mass.

Columns and labels:
Pseudomonas aeruginosa = assay: Antibacterial activity against Pseudomonas aeruginosa ATCC 15442 after 48 hrs by agar dilution method; assay type: functional; conditions: ATCC 15442, 48 h
[1] = Antiinflammatory activity in rat neonatal brain microglia cells assessed as effect on phorbol-12-myristate-13-acetate-stimulated superoxide release; assay type: functional, cell-based
[2] = Antiinflammatory activity in rat neonatal brain microglia cells assessed as effect on phorbol-12-myristate-13-acetate-stimulated thromboxane B2 release; assay type: functional, cell-based
[3] = Toxicity against rat neonatal brain microglia cells assessed as phorbol-12-myristate-13-acetate-stimulated LDH release; assay type: cell-based
Staphylococcus aureus [4] = assay: Antibacterial activity against Staphylococcus aureus ATCC 6535 after 48 hrs by agar dilution method; assay type: functional; conditions: ATCC 6535, 48 h
Staphylococcus aureus [5] = assay: Antibacterial activity against methicillin-resistant Staphylococcus aureus ATCC 33591 after 48 hrs by agar dilution method; assay type: functional; conditions: ATCC 33591, 48 h

Row | Compound | MIC (Pseudomonas aeruginosa) | IC50 [1] | IC50 [2] | IC50 [3] | MIC (Staphylococcus aureus [4]) | MIC (Staphylococcus aureus [5])
1 | C=C(C)[C@@H]1CC[C@]2(C)[C@H](CC=C3[C@@H]4C[C@](C)(C(=O)O)CC[C@]4(C)CC[C@]32C)[C@@]1(C)CCC(=O)O | 6.25 µg/mL (≈ 13.3 µM) | 1.9 µM | 0.5 µM | > 1 µM | > 3.25 µg/mL | > 6.25 µg/mL
2 | CC1(C)C(=O)CC[C@]2(C)[C@H]3C(=O)C=C4[C@@H]5C[C@@](C)(C(=O)O)CC[C@]5(C)CC[C@@]4(C)[C@]3(C)CC[C@@H]12 | – | 6.7 µM | 2.3 µM | > 10 µM | – | –
3 | CC1(C)C(=O)CC[C@]2(C)C3=CC=C4[C@@H]5C[C@@](C)(C(=O)O)CC[C@]5(C)CC[C@@]4(C)[C@]3(C)CC[C@@H]12 | 6.25 µg/mL (≈ 13.8 µM) | > 100 µM | > 100 µM | > 30 µM | > 50 µg/mL | > 50 µg/mL
4 | C=C(C)[C@@H]1CC[C@]2(C)[C@H](CC=C3[C@@H]4C[C@@](C)(C(=O)O)CC[C@]4(C)CC[C@]32C)[C@@]1(C)CCC(=O)O [KOETJAPIC ACID] | 6.25 µg/mL (≈ 13.3 µM) | – | – | – | > 6.25 µg/mL | 12.5 µg/mL (≈ 26.6 µM)
5 | CCO[C@@H]1C=C2[C@@H]3C[C@@](C)(C(=O)O)CC[C@]3(C)CC[C@@]2(C)[C@]2(C)CC[C@H]3C(C)(C)C(=O)CC[C@]3(C)[C@@H]12 | 12.5 µg/mL (≈ 25.1 µM) | – | – | – | > 12.5 µg/mL | 50 µg/mL (≈ 100 µM)
6 | CC1(C)C(=O)CC[C@]2(C)[C@H]3[C@H](O)C=C4[C@@H]5C[C@@](C)(C(=O)O)CC[C@]5(C)CC[C@@]4(C)[C@]3(C)CC[C@@H]12 | > 6.26 µg/mL | 3.2 µM | 3.6 µM | > 1 µM | > 6.25 µg/mL | > 6.25 µg/mL
7 | CO[C@@H]1C=C2[C@@H]3C[C@@](C)(C(=O)O)CC[C@]3(C)CC[C@@]2(C)[C@]2(C)CC[C@H]3C(C)(C)C(=O)CC[C@]3(C)[C@@H]12 | 10 µg/mL (≈ 20.6 µM) | 15 µM | 5 µM | > 30 µM | > 10 µg/mL | > 10 µg/mL
